Test results as given in ChEMBL document CHEMBL1833855, “A facile synthesis of carbocycle-fused mono and bis-1,2,3-selenadiazoles and their antimicrobial and antimycobacterial studies” (2011).
Converted amounts (≈) assume the structure as drawn.

Columns and labels:
Escherichia coli [1] = test: Antibacterial activity against Escherichia coli ATCC 25922 after 18 to 24 hrs by NCCLS M7-A5 based agar dilution method; type: functional
Escherichia coli [2] = test: Antibacterial activity against Escherichia coli ATCC 25922 assessed as zone of inhibition at 100 ug/disc after 24 hrs by agar disc diffusion method; type: functional; details: ATCC 25922, 24 h, read-out: DIZ
Staphylococcus aureus [3] = test: Antibacterial activity against Staphylococcus aureus ATCC 11632 after 18 to 24 hrs by NCCLS M7-A5 based agar dilution method; type: functional
Staphylococcus aureus [4] = test: Antibacterial activity against Staphylococcus aureus ATCC 11632 assessed as zone of inhibition at 100 ug/disc after 24 hrs by agar disc diffusion method; type: functional; details: ATCC 11632, 24 h, read-out: DIZ
Candida albicans [5] = test: Antifungal activity against Candida albicans ATCC 90028 after 18 to 24 hrs by NCCLS M7-A5 based agar dilution method; type: functional
Candida albicans [6] = test: Antifungal activity against Candida albicans ATCC 90028 assessed as zone of inhibition at 100 ug/disc after 48 hrs by agar disc diffusion method; type: functional; details: ATCC 90028, 48 h, read-out: DIZ
[7] = tested on: Mycobacterium tuberculosis; test: Antituberculosis activity against 10^7 cfu/mL Mycobacterium tuberculosis H37Rv after 28 days; type: functional; details: 672 h
Escherichia coli [8] = test: microbe, parasite or virus in culture; details: ATCC 25922, 24 h, read-out: DIZ
Description: Antibacterial activity against Escherichia coli ATCC 25922 assessed as zone of inhibition at 10 ug/disc after 24 hrs by agar disc diffusion method

Staphylococcus aureus [9] = test: microbe, parasite or virus in culture; details: ATCC 11632, 24 h, read-out: DIZ
Description: Antibacterial activity against Staphylococcus aureus ATCC 11632 assessed as zone of inhibition at 10 ug/disc after 24 hrs by agar disc diffusion method

Candida albicans [10] = test: Antifungal activity against Candida albicans ATCC 90028 assessed as zone of inhibition at 10 ug/disc after 48 hrs by agar disc diffusion method; type: functional; details: ATCC 90028, 48 h, read-out: DIZ

| SMILES | MIC (Escherichia coli [1]) [µg/mL] | zone of inhibition at 100 µg/disc (Escherichia coli [2]) [mm] | MIC (Staphylococcus aureus [3]) [µg/mL] | zone of inhibition at 100 µg/disc (Staphylococcus aureus [4]) [mm] | MIC (Candida albicans [5]) [µg/mL] | zone of inhibition at 100 µg/disc (Candida albicans [6]) [mm] | MIC [7] [µM] | zone of inhibition at 10 µg/disc (Escherichia coli [8]) [mm] | zone of inhibition at 10 µg/disc (Staphylococcus aureus [9]) [mm] | zone of inhibition at 10 µg/disc (Candida albicans [10]) [mm] |
| --- | --- | --- | --- | --- | --- | --- | --- | --- | --- | --- |
| COc1ccc([C@H](c2[se]nnc2-c2ccccc2)[C@@H]2CCCc3[se]nnc32)cc1 | 50 (≈ 97.2 µM) | 15 | 50 (≈ 97.2 µM) | 15 | 50 (≈ 97.2 µM) | < 10 | 48.6 (≈ 25 µg/mL) | – | – | – |
| Cc1ccc([C@H](CC(=O)c2ccccc2)[C@@H]2CCCc3[se]nnc32)cc1 | 25 (≈ 61.1 µM) | < 10 | 12.5 (≈ 30.5 µM) | 15 | 25 (≈ 61.1 µM) | 13 | 15.2 (≈ 6.22 µg/mL) | – | – | – |
| Clc1ccc([C@H](c2[se]nnc2-c2ccccc2)[C@@H]2CCCc3[se]nnc32)cc1 | 50 (≈ 96.4 µM) | < 10 | 25 (≈ 48.2 µM) | 20 | 25 (≈ 48.2 µM) | 10 | 24.1 (≈ 12.5 µg/mL) | – | – | – |
| Cc1ccc(C(=O)C[C@@H](c2ccc(Cl)cc2)[C@@H]2CCCc3[se]nnc32)cc1 | 12.5 (≈ 28.2 µM) | 15 | 25 (≈ 56.3 µM) | 18 | 12.5 (≈ 28.2 µM) | 17 | 3.5 (≈ 1.55 µg/mL) | – | – | – |
| c1ccc([C@H](c2[se]nnc2-c2ccc3ccccc3c2)[C@@H]2CCCc3[se]nnc32)cc1 | 25 (≈ 46.8 µM) | 10 | 50 (≈ 93.6 µM) | 10 | 50 (≈ 93.6 µM) | 10 | 46.8 (≈ 25 µg/mL) | – | – | – |
| COc1ccc(-c2nn[se]c2[C@@H](c2ccc(Cl)cc2)[C@@H]2CCCc3[se]nnc32)cc1 | 12.5 (≈ 22.8 µM) | 18 | 25 (≈ 45.6 µM) | 18 | 25 (≈ 45.6 µM) | 15 | 45.5 (≈ 25 µg/mL) | – | – | – |
| Cc1ccc([C@H](c2[se]nnc2-c2ccccc2)[C@@H]2CCCc3[se]nnc32)cc1 | 25 (≈ 50.2 µM) | 12 | 12.5 (≈ 25.1 µM) | 16 | 50 (≈ 100 µM) | 10 | 50.2 (≈ 25 µg/mL) | – | – | – |
| CO[C@H]1/C=C/O[C@@]2(C)Oc3c(C)c(O)c4c(O)c(c(/C=N/N5CCN(C)CC5)c(O)c4c3C2=O)NC(=O)/C(C)=C\C=C\[C@H](C)[C@H](O)[C@@H](C)[C@@H](O)[C@@H](C)[C@H](OC(C)=O)[C@@H]1C [RIFAMPIN] | – | – | – | – | – | – | 0.1 (≈ 0.0823 µg/mL) | – | – | – |
| O=C(C[C@@H](c1ccccc1)[C@@H]1CCCc2[se]nnc21)c1ccc2ccccc2c1 | 25 (≈ 56.1 µM) | 10 | 25 (≈ 56.1 µM) | 15 | 50 (≈ 112 µM) | 10 | 28 (≈ 12.5 µg/mL) | – | – | – |
| COc1ccc([C@H](CC(=O)c2ccccc2)[C@@H]2CCCc3[se]nnc32)cc1 | 25 (≈ 58.8 µM) | 15 | 25 (≈ 58.8 µM) | 18 | 50 (≈ 118 µM) | 12 | – | – | – | – |
| Clc1ccc(-c2nn[se]c2[C@@H](c2ccc(Cl)cc2)[C@@H]2CCCc3[se]nnc32)cc1 | 12.5 (≈ 22.6 µM) | 15 | 25 (≈ 45.2 µM) | 15 | 12.5 (≈ 22.6 µM) | 15 | 22.5 (≈ 12.4 µg/mL) | – | – | – |
| CC[C@@H](CO)NCCN[C@@H](CC)CO [ETHAMBUTOL] | – | – | – | – | – | – | 7.6 (≈ 1.55 µg/mL) | – | – | – |
| O=C(C[C@@H](c1ccc(Cl)cc1)[C@@H]1CCCc2[se]nnc21)c1ccc(Cl)cc1 | 6.25 (≈ 13.5 µM) | 20 | 6.25 (≈ 13.5 µM) | 20 | 12.5 (≈ 26.9 µM) | 15 | 3.3 (≈ 1.53 µg/mL) | – | – | – |
| O=C(C[C@@H](c1ccccc1)[C@@H]1CCCc2[se]nnc21)c1ccccc1 | 12.5 (≈ 31.6 µM) | 18 | 12.5 (≈ 31.6 µM) | 15 | 25 (≈ 63.2 µM) | 15 | 15.8 (≈ 6.25 µg/mL) | – | – | – |
| Cc1ccc(-c2nn[se]c2[C@@H](c2ccccc2)[C@@H]2CCCc3[se]nnc32)cc1 | 25 (≈ 50.2 µM) | 16 | 50 (≈ 100 µM) | < 10 | 50 (≈ 100 µM) | 10 | 50.2 (≈ 25 µg/mL) | – | – | – |
| Cc1ccc(C(=O)C[C@@H](c2ccccc2)[C@@H]2CCCc3[se]nnc32)cc1 | 12.5 (≈ 30.5 µM) | 17 | 25 (≈ 61.1 µM) | 18 | 25 (≈ 61.1 µM) | 12 | – | – | – | – |
| NNC(=O)c1ccncc1 [ISONIAZID] | – | – | – | – | – | – | 0.4 (≈ 0.0549 µg/mL) | – | – | – |
| O=C(C[C@@H](c1ccc(Cl)cc1)[C@@H]1CCCc2[se]nnc21)c1ccccc1 | 12.5 (≈ 29.1 µM) | 18 | 12.5 (≈ 29.1 µM) | 16 | 25 (≈ 58.2 µM) | 15 | 3.6 (≈ 1.55 µg/mL) | – | – | – |
| O=C(O)c1cn(C2CC2)c2cc(N3CCNCC3)c(F)cc2c1=O [CIPROFLOXACIN] | – | – | – | – | – | – | – | 28 | 25 | – |
| COc1ccc(C(=O)C[C@@H](c2ccc(Cl)cc2)[C@@H]2CCCc3[se]nnc32)cc1 | 12.5 (≈ 27.2 µM) | 20 | 12.5 (≈ 27.2 µM) | 20 | 25 (≈ 54.4 µM) | 15 | – | – | – | – |
| COc1ccc(-c2nn[se]c2[C@@H](c2ccccc2)[C@@H]2CCCc3[se]nnc32)cc1 | 25 (≈ 48.6 µM) | 12 | 25 (≈ 48.6 µM) | 12 | 50 (≈ 97.2 µM) | 12 | 48.6 (≈ 25 µg/mL) | – | – | – |
| O=C(C[C@@H](c1ccccc1)[C@@H]1CCCc2[se]nnc21)c1ccc(Cl)cc1 | 25 (≈ 58.2 µM) | 10 | 12.5 (≈ 29.1 µM) | 15 | 12.5 (≈ 29.1 µM) | 15 | 7.2 (≈ 3.09 µg/mL) | – | – | – |
| Cc1ccc(-c2nn[se]c2[C@@H](c2ccc(Cl)cc2)[C@@H]2CCCc3[se]nnc32)cc1 | 25 (≈ 46.9 µM) | 15 | 25 (≈ 46.9 µM) | 15 | 12.5 (≈ 23.5 µM) | 15 | 23.5 (≈ 12.5 µg/mL) | – | – | – |
| Clc1ccccc1C(c1ccccc1)(c1ccccc1)n1ccnc1 [CLOTRIMAZOLE] | – | – | – | – | 6.25 (≈ 18.1 µM) | – | – | – | – | 28 |
| c1ccc(-c2nn[se]c2[C@@H](c2ccccc2)[C@@H]2CCCc3[se]nnc32)cc1 | 25 (≈ 51.6 µM) | 12 | 25 (≈ 51.6 µM) | 15 | 25 (≈ 51.6 µM) | 15 | 51.6 (≈ 25 µg/mL) | – | – | – |
| COc1ccc(C(=O)C[C@@H](c2ccccc2)[C@@H]2CCCc3[se]nnc32)cc1 | 12.5 (≈ 29.4 µM) | 12 | 25 (≈ 58.8 µM) | 15 | 25 (≈ 58.8 µM) | 15 | 29.3 (≈ 12.5 µg/mL) | – | – | – |
| Clc1ccc(-c2nn[se]c2[C@@H](c2ccccc2)[C@@H]2CCCc3[se]nnc32)cc1 | 25 (≈ 48.2 µM) | 13 | 25 (≈ 48.2 µM) | 10 | 25 (≈ 48.2 µM) | 13 | 48.2 (≈ 25 µg/mL) | – | – | – |
